A melting point compilation (Tetko et al.; mined from patent text by program, amines drawn as free bases though some values may be those of a salt)

SMILES | melting point [°C]
O=Cc1c[nH]c2ccc(C(F)(F)F)cc12 | 242 to 243
CC(=O)Oc1cc(C(C)C)ccc1C1(OC(C)=O)C(=O)c2cccc(N)c2C1=O (centres undefined) | 148 to 151
NNC(=O)c1cc(N2CCN(c3ccc([N+](=O)[O-])cc3)CC2)ccn1 | 230 to 232
CNC(=O)c1cc(-c2ccc(F)cc2)c2c3c(ccc2n1)OCO3 | 233 to 235
CC(C)(C)c1ccc(OCCC(=O)O)c(C(C)(C)C)c1 | 105 to 106
COc1ccc(-c2nnn(-c3cc(C)on3)c2N)cc1 | 136 to 141
CSc1nc(N)nc(N)c1-c1ccc(Cl)cc1Cl | 191 to 192
CCOC(=O)c1c(CN(CC)CC)nc2sc3c(c2c1-c1ccc(OC)c(OC)c1)CCN=C3 | 118 to 120
COc1ccc(S(=O)(=O)N(CC(N)=O)c2ccc(Cl)cc2C(C)c2ccccc2Cl)cc1OC (centres undefined) | 150
CCCCc1nc(Cl)c(CO)n1Cc1ccc(-c2cccc(C(=O)OC)c2)cc1 | 162 to 163
CCCOCCOC(=O)C(=O)Nc1nc(-c2ccccc2)cs1 | 94 to 96
CC(C)(C)OC(=O)NCCCCC(N)C(=O)Nc1ccccc1 (centres undefined) | 72 to 74.5
COc1ccc(C(=O)Nc2ccccc2)cc1NCc1cccc(C)c1 | 184 to 185
COc1ccc(C(=O)Cl)cc1C12CC3CC(CC(C3)C1)C2 | 153 to 154
COC(=O)c1ccc(Cc2c[nH]c3ccc(C#N)cc23)c(OC)c1 | 148 to 149
O=C(Oc1ccccc1)C1CCCc2ccc([N+](=O)[O-])cc21 (centres undefined) | 83 to 84
CNc1nc(-c2ccc(F)cc2)c(I)c(C(C)C)n1 | 195 to 196
COc1ccccc1Oc1c(N)nc(-c2ncccn2)nc1OCCOc1ncc(Br)cn1 | 124 to 128
COC(=O)C1=Cc2cc(-c3ccc(OCCOC(C)C)cc3)ccc2NCC1 | 86 to 88
CN(C)c1snc(OCC#CI)c1C#N | 171 to 172

SMILES | melting point [°C]
COc1ccc(-c2nc3ccc(OC(F)(F)F)cc3[nH]2)cc1 | 200 to 202
O=C1CCCCCN1C(=O)c1ccccc1 | 69
O=C(NS(=O)(=O)c1c(F)cccc1F)N1CCC=N1 | 183
COc1ccc(S(=O)(=O)N(CC(=O)NO)Cc2ccccc2)cc1 | 112 to 114
O=c1c2c(CSc3ncnc4[nH]cnc34)cccc2nc(C(F)(F)F)n1-c1ccccc1Cl | 218 to 219
O=C(CCCCCCc1ccccc1)Oc1cc(=O)n(-c2ccccc2)c2ncccc12 | 139 to 140
O=C(O)c1cccc(NC(=O)C(CS)CC2CN(Cc3ccccc3)CCO2)c1 (centres undefined) | 110 to 112
CCOC(=O)C(N)c1c[nH]c2c(CC)cccc12 (centres undefined) | 120 to 122
O=c1c2sccc2nc(CNc2ccccc2F)n1-c1ccccc1Cl | 175 to 176
COc1ccc2sc(C(N)=O)c(SCC(=O)O)c2c1 | 126 to 127
CC(C)(C)C(=O)CN1C(=O)C(NC(=O)Nc2cccc(C(=O)O)c2)CN(C(=O)C(C)(C)C)c2ccccc21 (centres undefined) | 231 to 233
CC(=O)Nc1ccc(-c2nc(=O)c3ccccc3s2)cc1 | 231 to 232
Cc1ccc(C(=O)Nc2cc3c(cc2N)C(C)(C)CCC3(C)C)cc1 | 180
Cc1cc(N2CCC=C(C(N)=O)C2)c2cccc(-c3ccc(Cl)cc3Cl)c2n1 | 230 to 232
COc1cc(NC(=O)CCCCCN2CC(C)NC(C)C2)c2nccc(C)c2c1 (centres undefined) | 94 to 96
CCCCCCCCN=C1SC(=CC(=O)O)C(=O)N1CCCCCCCC | 57 to 61
Cn1cnnc1C(O)(c1ccc(Cl)cc1)c1ccc2c(c1)c(-c1cccc(Cl)c1)cc(=O)n2Cc1ccc(C#N)cc1 (centres undefined) | 185
CN(C)c1ccc(-c2nnc(N(C)C)nc2-c2ccc(N(C)C)cc2)cc1 | 170 to 172
O=c1[nH]c(N[N+](=O)[O-])ncc1Cc1ccncc1 | 228 to 229
